Measurements published in patent US7387779B2, “Anti-angiogenic proteins and fragments and methods of use thereof” (Beth Israel Deaconess Medical Center, priority 1998, dated 2008).

Experiments:
Type in all cases: cell-based, bovine
Caspase-3 in C-PAE cells [1] = test: Caspase-3 assay; conditions: TNF-α 80 ng/ml
Method: Tumstatin also altered cell morphology of C-PAE cells as monitored by phase contrast microscopy. After treating cells with 20 μg/ml of Tumstatin in the presence of 10% FCS for 24 hours on fibronectin-coated plates, the typical morphological features of apoptotic cells, membrane blebbing, cytoplasmic shrinkage, and chromatin condensation could be observed. […] Caspase-3 assay: Caspase-3 (CPP32) is an intracellular protease activated at the early stage of apoptosis, and initiates cellular breakdown by degrading structural and DNA repair proteins (Casciola-Rosen, L. et al., 1996, J. Exp. Med. 183:1957-64; Salvesen, G. S. et al., 1997, Cell 91:443-46). The protease activity of Caspase-3 was measured spectrophotometrically by detection of the chromophore (p-nitroanilide) cleaved from the labeled substrate (DEVD-pNA). C-PAE cells or PC-3 cells (0.5×10^6 per well) were plated onto a 6-well plate precoated with fibronectin (10 μg/ml) in DMEM supplemented with 10% FCS, and incubated overnight. The next day, the medium was replaced with DMEM containing 2% FCS and then incubated overnight at 37° C. Then cells were then stimulated with bFGF (3 ng/ml) in DMEM supplemented with 2% FCS, and also containing either TNF-α (80 ng/ml, positive control) or Tumstatin (10 μg/ml), and incubated for 24 hours. Controls received PBS buffer. After 24 hours, the supernatant cells were collected, and attached cells were trypsinized and combined with the supernatant cells. Cells were counted and resuspended in cell lysis buffer (Clontech) at a concentration of 4×10^7 cells/ml. The rest of the protocol followed the manufacturer's instructions (Clontech). A specific inhibitor of Caspase-3, DEVD-fmk (Asp-Glu-Val-Asp-fluoromethyl ketone) was used to confirm the specificity of the assay. The absorbance was measured in a microplate reader (Bio-Rad, Hercules, Calif., USA) at 405 nm. The assay was repeated three times for each cell type.
Apoptosis was also evaluated by measuring Caspase-3 activity as described in Example 27, above. The results are shown in FIG. 35, which is a histogram showing Caspase-3 activity as a measure of absorbance at OD405 (y-axis) of C-PAE cells treated (x-axis) with 5 μg/ml Tum-1, Tum-2, Tum-3 or Tum-4, or 80 ng/ml TNF-α or PBS buffer (control).
Caspase-3 activity was also assayed as described above. DEVD-fmk, a specific caspase-3 inhibitor, was used as an internal control to show specificity of Tumstatin-44-131. TNF-α (80 ng/ml) was used as a positive control. The experiments were repeated three times.
The protease activity of Caspase-3 in cells treated with T3 peptide was measured spectrophotometrically by detection of the chromophore (p-nitroanilide) cleaved from the labeled substrate (DEVD-pNA). […] In PC-3 nonendothelial cells, there was no difference in Caspase-3 activity between control treatments and T3 peptide-treated cells.

C-PAE cells = test: Annexin V-FITC apoptosis assay; conditions: 5 μg/ml Arresten, 40 ng/ml TNFα
Method: Fifty thousand C-PAE cells were added to each well of a 6-well tissue culture plate in DMEM supplemented with 10% FBS for 12 hours. Fresh medium together and either 5 μg/ml Arresten or 40 ng/ml TNFα (positive control) was added at 2, 4 and 6 hour time points. Control wells received an equal of volume of PBS. Detached cells and adherent cells were pooled together and centrifuged at 1500 rpm. Cells were washed with binding buffer (Clontech, Palo Alto, Calif., USA), and phosphatidyl-serine (PS) externalization, an indicator of apoptosis, was measured by labeling with FITC-labeled annexin V (Clontech) according to manufacturer's instructions. Annexin-FITC labeled cells were counted using a FACStar Plus flow cytometer (Becton-Dickinson, Waltham, Mass., USA). For each treatment, 10,000 cells were counted and stored. […] Relative to controls, the percentage of annexin-V-stained (apoptotic) cells increased to about 27% at 2 hours, and near 20% at 4 and 6 hours for the positive control, TNFα. For Arresten-treated cells, the percentage of apoptotic cells was about 18% at 2 hours, and about 23% at 4 and 6 hours.
Annexin V-FITC Labeling. In order to establish apoptosis as the potential mode of action for Canstatin, Annexin V-FITC was used to label externalized phosphatidylserine (PS), to assess apoptotic cells. 0.5×10^6 C-PAE cells, PC-3, 786-O and HEK 293 cells were added to each well of a 6 well tissue culture plate in 10% FBS supplemented DMEM (BioWhittaker, Walkersville, Md., USA) overnight. The next day, fresh medium was added to all wells together with 40 ng/ml TNF-α (positive control) or 15 μg/ml Canstatin. Control cells received an equal volume of PBS. After 24 hours of treatment, medium containing detached cells was collected and attached cells were trypsinized and combined with detached cells and centrifuged at 3,000×g. Cells were then washed and phosphatidyl-serine externalization (an early apoptotic indicator) was measured by labeling with FITC-labeled annexin V (Clontech, Palo Alto, Calif., USA) according to the manufacturer's instructions. Annexin V-FITC-labeled cells were counted using a FAC Star Plus flow cytometer (Becton-Dickenson, Waltham, Mass., USA). For each treatment 15,000 cells were counted and stored in listmode.
C-PAE cells (0.5×10^6 per well) were seeded onto a 6-well plate in 10% FCS supplemented DMEM. The next day, fresh medium containing 10% FCS was added with either 80 ng/ml of TNF-α (positive control) or Tumstatin ranging from 0.02 to 20 μg/ml. Control cells received an equal volume of PBS. After 18 hours of treatment, medium containing floating cells was collected, and attached cells were trypsinized and centrifuged together with floating cells at 3,000×g. The cells were then washed in PBS and resuspended in binding buffer (10 mM HEPES/NaOH, pH 7.4, 140 mM NaCl, 2.5 mM CaCl2). Annexin V-FITC (Clontech, Palo Alto, Calif., USA) was added to a final concentration of 150 ng/ml, and the cells were incubated in the darkness for 10 minutes. The cells were washed again in PBS and resuspended in binding buffer. Annexin V-FITC labeled cells were counted using a FACStar Plus flow cytometer (Becton-Dickinson, Waltham, Mass., USA). For each treatment, 15,000 cells were counted and stored in listmode.
Apoptosis was measured by Annexin V-FITC assay, using the ApoAlert kit (Clontech, Palo Alto, Calif., USA). Propidium iodide was used to stain the nuclei of cells that had died by ways other than apoptosis.
The assay was performed as described above, by treating C-PAE cells with Tumstatin-44-131 for 18 hours. Control cells received PBS.

Caspase-3 in C-PAE cells [2] = test: Caspase-3 assay; conditions: 20 μg/ml Tumstatin; TNF-α positive control

Substance: TNF-α [reference compound]
- fold increase in Caspase-3 activity (Caspase-3 in C-PAE cells [1]; 10 μg/ml E. Coli-expressed Tumstatin-44-131): 4.5 fold
- fold increase in Caspase-3 activity (Caspase-3 in C-PAE cells [1]; 50 μg/ml T3 peptide): 4.5 fold
- percentage of annexin-V-stained (apoptotic) cells (C-PAE cells; 4 and 6 hours): ~20%
- percentage of annexin-V-stained (apoptotic) cells (C-PAE cells; 2 hours): about 27%
- fold increase in Caspase-3 activity (Caspase-3 in C-PAE cells [2]): 1.7 fold
